Test results reported in ChEMBL document CHEMBL1932949, “Novel indoleamine 2,3-dioxygenase-1 inhibitors from a multistep in silico screen” (Bioorg Med Chem, 2012).

Assays:
[1] = molecular target: T1, Indoleamine 2,3-dioxygenase 1 (Homo sapiens, UniProt P14902); assay: Inhibition of His-tagged recombinant human IDO1 expressed in Escherichia coli using tryptophan as substrate by spectrophotometric analysis
Target sequence in this assay (P14902 whole entry): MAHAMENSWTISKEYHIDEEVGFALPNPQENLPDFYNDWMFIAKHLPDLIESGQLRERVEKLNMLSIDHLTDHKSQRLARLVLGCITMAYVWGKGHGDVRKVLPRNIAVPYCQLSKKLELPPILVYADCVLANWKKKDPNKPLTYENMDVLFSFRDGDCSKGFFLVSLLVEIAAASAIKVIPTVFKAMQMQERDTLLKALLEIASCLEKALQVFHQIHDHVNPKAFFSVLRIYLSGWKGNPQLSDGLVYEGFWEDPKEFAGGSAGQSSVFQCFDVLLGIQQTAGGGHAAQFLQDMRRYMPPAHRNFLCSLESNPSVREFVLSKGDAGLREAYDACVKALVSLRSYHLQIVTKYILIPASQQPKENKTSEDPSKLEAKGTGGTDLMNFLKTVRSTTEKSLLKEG

[2] = molecular target: T1, Indoleamine 2,3-dioxygenase 1; settings: at 200 µM
Target sequence in this assay (P14902 whole entry, looked up): as the sequence (P14902 whole entry) above
Description: Inhibition of His-tagged recombinant human IDO1 expressed in Escherichia coli using tryptophan as substrate at 200 uM by spectrophotometric analysis

[3] = molecular target: T1, Indoleamine 2,3-dioxygenase 1; assay: Inhibition of His-tagged recombinant human IDO1 expressed in Escherichia coli using tryptophan as substrate at 100 uM by spectrophotometric analysis
Target sequence in this assay (P14902 whole entry, looked up): as the sequence (P14902 whole entry) above

[4] = molecular target: T1, Indoleamine 2,3-dioxygenase 1; assay: Inhibition of IDO1
Target sequence in this assay (P14902 whole entry): as above

[5] = molecular target: T1, Indoleamine 2,3-dioxygenase 1; assay: Inhibition of His-tagged recombinant human IDO1 expressed in Escherichia coli using tryptophan as substrate by HPLC analysis
Target sequence in this assay (P14902 whole entry): as above

[6] = molecular target: T1, Indoleamine 2,3-dioxygenase 1; assay: Inhibition of His-tagged recombinant human IDO1 expressed in Escherichia coli using tryptophan as substrate by Ehrlich's method
Target sequence in this assay (P14902 whole entry): as above

[7] = Dissociation constant, pKa of the compound; format: physicochemical

SMILES | inhibition [2] | also measured
c1ccc2c(c1)[nH]c1cnccc12 [NORHARMANE] |  | IC50 [1]: 90 µM
S=C1N2CCN=C2SC2=NCCN12 | 0% | 
CN1CCN(C(=O)c2nccnc2C(=O)O)CC1 | 0% | 
Nc1cc2ccccc2cc1C(=O)O |  | IC50 [1]: 15 µM; inhibition [3]: 74%
Cc1[nH]ccc2c1[nH]c1cc(=O)ccc12 [HARMOL] |  | IC50 [4]: 2000 µM
Cc1cc2nnc(/C(N)=N/O)c(C)n2n1 | 0% | 
N/C(CS(=O)(=O)c1ccccc1)=N\O | 0% | 
N/C(=N\OS(=O)(=O)c1ccc(Cl)cc1)c1ccc(C(F)(F)F)cc1 | 0% | 
COC(=O)c1cc2ccccc2cc1N |  | IC50 [1]: 460 µM
N/C(=N/OC(=O)c1cc2ccccc2oc1=O)c1ccc(Oc2ccc(C(F)(F)F)cc2[N+](=O)[O-])cc1 | 70% | 
O=c1[nH]nc2n1-c1ccccc1SC2 | 0% | 
OC1(c2ccc(Cl)cc2)CCN(Cn2nnc3ccccc32)CC1 | 0% | 
O=C(O)c1cc2ccccc2cc1O |  | IC50 [1]: 1000 µM
N/C(=N\OC(=O)c1ccccc1Cl)c1cccc(CS(=O)(=O)c2ccc(Cl)cc2)c1 | 70% | 
Nc1ccc2c(c1)N1CCN=C1S2 | 70% | IC50 [5]: 50 µM
CCOC(=O)N1CCN(CC(O)Cn2c(=O)c3c(ncn3C)n(C)c2=O)CC1 (stereo not given) | 0% | 
Cc1nnsc1C(=O)O/N=C(/N)COc1ccc(C2SCCS2)cc1 | 70% | IC50 [6]: 50 µM
CSC(=N)N |  | pKa [7]: 9.83
Sc1nnc2nnc3ccccc3n12 | 0% | 
O=c1nc2sccn2c2ncccc12 | 0% | 
CN(C)CCCNc1cccc(Cl)c1C#N | 0% | 
O[C@@H](CNCCNc1nccc(C(F)(F)F)n1)CSc1ccc(F)cc1 | 0% | 
N=C(NOC(=O)c1cc2ccccc2oc1=O)c1ccc(Oc2ccc(C(F)(F)F)cc2[N+](=O)[O-])cc1 |  | IC50 [6]: 20 µM
O=c1c2ccccc2nc2ccccn12 | 0% | 
Cn1c(S)nnc1-c1ccc(Cl)cc1 | 0% | 
NC(=NOC(=O)c1ccccc1Cl)c1cccc(CS(=O)(=O)c2ccc(Cl)cc2)c1 |  | IC50 [6]: 60 µM
Nc1cc2ccccc2cc1CO |  | IC50 [1]: 190 µM
